Experimental data: publication PMC10350924, “Design, Synthesis, and Pharmacological Characterization of a Potent Soluble Epoxide Hydrolase Inhibitor for the Treatment of Acute Pancreatitis” (Journal of Medicinal Chemistry, 2023)

Test system: EETs, DHETs and HETEs in pancreas homogenates
Experiment: Targeted metabololipidomics of pancreas homogenates (cerulein AP mice)
Type: in vivo
Details: not statistically significant
Procedure: The extraction of targeted lipid mediators from pancreas was performed as follows: tissues were lyophilized and weighted, 10 mg was homogenized and deproteinized with 500 μL of ice-cold 10% v/v MeOH spiked with labeled standards, and subsequently diluted with 500 μL of phosphate-buffered saline (PBS). Samples were then loaded on solid-phase extraction cartridges, Strata-X reversed-phase SPE columns (100 mg/3 mL) (Phenomenex, Bologna, Italy). Cartridges were conditioned with 3 mL of MeOH and equilibrated with 3 mL of ddH2O. Following loading, washed with 1 mL of 10% MeOH v/v, and finally eluted with 1.5 mL of MeOH. Eluted samples were dried with a SpeedVac (Savant, Thermo Scientific, Milan, Italy) and dissolved prior to UHPLC-MS/MS analyses in 50 μL of UHPLC solvent A.
The analyses were acquired using a Shimadzu Nexera UHPLC (Kyoto, Japan) coupled online to a triple quadrupole LCMS-8050 (Shimadzu) equipped with an electrospray ionization (ESI) source operating in ESI negative mode. The separation was performed on a Kinetex EVO C18 150 mm × 2.1 mm, 2.6 μm (100 Å) (Phenomenex, Bologna, Italy). The flow rate was set to 0.4 mL/min, and the column oven was set at 40 °C. The mobile phases were, respectively: (A) ACN/H2O 45:55 acidified with 0.02% CH3COOH v/v and (B) ACN/IPA 50:50. The following gradient was used: 0 min, 0%B, 0–12 min 60%B, 12.10 min, 60–99%B, 12.10–13.05 isocratic to 99% B; returning to 0% B in 0.1. MS source parameters: desolvation Line (DL) 250 °C, interface: 300 °C, block heater 350 °C, nebulizing (N2), drying (N2), and heating (Air) gas pressures: 3, 10, 10 L/min. Each analyte was optimized by infusing standard solution at 0.2 mg/mL, multiple reaction monitoring (MRM) mode was used. Detailed MRM parameters are available in Table S3. […]

CC(C)c1ccc(Cn2ccc3cc(NC(=O)NCC45C[C@H]6C[C@@H](C4)C[C@@H](C5)C6)ccc32)cc1 [Compound 28, 1-(((3R,5R,7R)-Adamantan-1-yl)methyl)-3-(1-(4-isopropylbenzyl)-1H-indol-5-yl)urea]
change of DHET levels with respect to vehicle: −31.5%
change of EETs levels with respect to vehicle: +21.9%
change of HETEs levels (15-HETE, 12-HETE, 5-HETE) with respect to vehicle: −13.4%
